Source: patent US10857105B2, “Compounds and compositions for intracellular delivery of therapeutic agents” (ModernaTX, Inc., priority 2017, dated 2020)

Key:
luciferase (Luc) mRNA [1] = test: Luciferase expression (whole body bioluminescence) after intravenous administration to mice; format: in vivo; conditions: for Novel lipid/MC3 expression ratio, i.v.: intravenous, luciferase, 6 hr. time point, relative to MC3 formulation
In short: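 Mice (n=6) received lipid nanoparticle formulations carrying luciferase mRNA intravenously at 0.5 mg/kg. Whole-body bioluminescence was measured at 3, 6 and 24 h. Total flux was taken as area under the curve and expressed relative to a standard MC3 formulation.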

[2] = Particle size and polydispersity index of nanoparticle compositions (Zetasizer Nano ZS); format: physicochemical
In short: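 Size and PDI measured by Zetasizer Nano ZS in 1×PBS (zeta potential in 15 mM PBS). Lipid nanoparticles contained test ionizable lipid:DSPC:cholesterol:PEG-DMG at 50:10:38.5:1.5 mol % with N1-methyl-pseudouridine mRNA encoding luciferase or hEPO.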

luciferase (Luc) mRNA [3] = test: Luciferase expression after intramuscular administration to mice; format: in vivo; conditions: for Novel lipid/MC3 expression ratio, i.m. Luc / Total flux 6 hours after intramuscular administration, 0.01 mpk Dose: intramuscular; for Novel lipid/MC3 expression ratio, i.m. Luc: 6 hr. time point, relative to MC3 formulation; for Total flux 6 hours after intramuscular administration, 0.01 mpk Dose: Luc mRNA
From the text: The numbers 1-7 in this figure correspond to MC3, Compounds 168-170, and 173-175 respectively.
FIGS. 18A and 18B show the results of luciferase expression measured upon intramuscular administration of various nanoparticle compositions to CD-1 mice at 0.01 mpk. FIG. 18A is a bar graph showing total flux at 6 hr after administration. The numbers above each bar indicate the expression ratio relative to MC3. […] Numbers 1-11 in the Figures refer to compositions containing the following: 1: MC3, 2: Compound 143, 3: Compound 49; 4: Compound 113; 5: Compound 61; 6: Compound 72; 7: Compound 75; 8: Compound 71; 9: Compound 128; 10: Compound 156; 11: Compound 157.
The numbers 1-9 in this figure correspond to MC3, and Compounds 178, 181, 182, 218, 198, 200, 233, and 239, respectively.
The total flux (measured by area under the curve, AUC) induced by administration of a formulation including a given lipid relative to that induced by administration of a formulation including MC3 was also measured for several lipids.
Sample formulations including modified luciferase (Luc) mRNA prepared and administered intramuscularly and the resulting expression and immunogenicity were evaluated simultaneously. Formulations including compounds according to Formula (I), (IA), (IB), (II), (IIa), (IIb), (IIc), (IId), (IIe), (IIf), (IIg), or (III) were prepared and administered at dose of and 0.01 mpk.

[4] = Encapsulation efficiency of RNA in nanoparticle compositions (RIBOGREEN assay); format: physicochemical
In short: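 Lipid nanoparticles (ionisable lipid:DSPC:cholesterol:PEG-DMG 50:10:38.5:1.5 mol %) carrying N1-methylpseudouridine luciferase or hEPO mRNA diluted to about 5 μg/mL in TE, pH 7.5, with or without 2% Triton X-100, 15 min at 37° C. RiboGreen fluorescence (ex ~480, em ~520 nm) blank-subtracted; free RNA = intact/disrupted signal.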

modified luciferase = test: Luciferase expression in liver, lung, spleen and femur 6 hours after intravenous administration to mice; format: in vivo; conditions: 6 hours after intravenous 0.5 mpk, mice
In short: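 Nanoparticle formulations of the modified luciferase were given intravenously to mice (n=3) at 0.5 mpk. Bioluminescence was measured after 6 hours as total light flux. Standard MC3 formulation and PBS run as controls.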

[5] = Table 1A, lipid:DSPC:cholesterol:PEG-DMG 50:10:38.5:1.5 mol %
[6] = Table 1B, formulated with hEPO mRNA
[7] = Table 1E, compositions for subcutaneous administration
[8] = Table 1D, compositions for subcutaneous administration, # formulated with hEPO mRNA

| SMILES | Size [2, 5] [nm] | Size [2, 6] [nm] | EE [4, 5] [%] | EE [4, 6] [%] | Size ([2]; Table 1C, compositions for subcutaneous administration) [nm] | Size [2, 7] [nm] | Size [2, 8] [nm] | Novel lipid/MC3 expression ratio, i.v. (luciferase (Luc) mRNA [1]) | Novel lipid/MC3 expression ratio, i.m. Luc (luciferase (Luc) mRNA [3]; luciferase) | Total flux 6 hours after intramuscular administration, 0.01 mpk Dose (luciferase (Luc) mRNA [3]) [p/s] | Total Flux, Liver (modified luciferase) | Total Flux, Lung (modified luciferase) | Total Flux, Spleen (modified luciferase) | AUC (luciferase (Luc) mRNA [1]; intravenous administration (Table 3D)) [p/s*h] | AUC (luciferase (Luc) mRNA [3]; luciferase, intramuscular administration (Table 3H)) [p/s*h] |
| --- | --- | --- | --- | --- | --- | --- | --- | --- | --- | --- | --- | --- | --- | --- | --- |
| CCCCCCCCC(C)OC(=O)CCCCCN(CCO)CCCCCCCC(=O)OC(CCCCCCCC)CCCCCCCC (stereo not shown) [Compound 122, Heptadecan-9-yl 8-((6-(decan-2-yloxy)-6-oxohexyl)(2-hydroxyethyl)amino)octanoate] | 69.3 | 70.2 |  | 96.27 | 80.2 |  |  |  |  | 9.19E+07 | 2.63E+09 | 2.77E+07 | 1.56E+07 |  |  |
| CCCCCCCCC(CCCCCCCC)OC(=O)CCCCCCCN(CCO)CCCCCC(=O)OC(CCCCCCCC)C1CC1 (stereo not shown) [Compound 128, Heptadecan-9-yl 8-((6-((1-cyclopropylnonyl)oxy)-6-oxohexyl)(2-hydroxyethyl)amino)octanoate] | 104.1 |  |  |  |  | 73.9 |  |  | 0.99 |  | 5.98E+09 | 2.16E+07 | 7.09E+07 |  |  |
| CCCCCCCCCOC(=O)CCCCCCCN(CCCCCCCC(=O)OC(CCCCCCCC)CCCCCCCC)CCCNS(C)(=O)=O [Compound 109, Heptadecan-9-yl 8-((3-(methylsulfonamido)propyl)(8-(nonyloxy)-8-oxooctyl)amino)octanoate] | 81.1 | 75 |  | 98.29 |  | 67.0 |  | 0.35 |  | 1.18E+08 | 8.17E+08 | 6.03E+06 | 4.81E+07 |  |  |
| CCCCCCCCCOC(=O)CCCCCCCN(CCCCCCCC(=O)OC(CCCCCCCC)CCCCCCCC)CCCNC(=O)CO [Compound 198, Heptadecan-9-yl 8-((3-(2-hydroxyacetamido)propyl)(8-(nonyloxy)-8-oxooctyl)amino)octanoate] | 84.2 |  | 99.5 |  |  |  |  | 0 | 0.52 |  |  |  |  |  |  |
| CCCCCCCCCOC(=O)CCCCCCCN(CCCCCCCC(=O)OC(CCCCCCCC)CCCCCCCC)CCCNc1c(NC)c(=O)c1=O [Compound 182, Heptadecan-9-yl 8-((3-((2-(methylamino)-3,4-dioxocyclobut-1-en-1-yl)amino)propyl)(8-(nonyloxy)-8-oxooctyl)amino)octanoate] | 84.4 |  | 99.0 |  |  |  |  | 0.66 | 6.80 |  |  |  |  |  |  |
| CCCCCCCCCOC(=O)CCCCCCCN(CCCCCCCC(=O)OC(CCCCCCCC)CCCCCCCC)CCCNC(=O)OC [Compound 181, Heptadecan-9-yl 8-((3-((methoxycarbonyl)amino)propyl)(8-(nonyloxy)-8-oxooctyl)amino)octanoate] | 78.7 |  | 88.9 |  |  |  |  | 0.27 | 0.97 |  |  |  |  |  |  |
| CCCCCCCCCOC(=O)CCCCCCCN(CCCCCCCC(=O)OC(CCCCCCCC)CCCCCCCC)CCCN/C(=C/[N+](=O)[O-])NC [Compound 170, Heptadecan-9-yl (E)-8-((3-((1-(methylamino)-2-nitrovinyl)amino)propyl)(8-(nonyloxy)-8-oxooctyl)amino)octanoate] | 96.0 |  |  |  |  |  |  | 0.02 | 5.3 |  |  |  |  |  |  |
| CCCCCCCCCOC(=O)CCCCCCCN(CCCCCCCC(=O)OC(CCCCCCCC)CCCCCCCC)C(CO)CO [Compound 156, Heptadecan-9-yl 8-((1,3-dihydroxypropan-2-yl)(8-(nonyloxy)-8-oxooctyl)amino)octanoate] | 68.1 |  |  |  |  |  |  | 0.60 | 0.06 |  | 6.51E+08 | 1.92E+06 | 1.82E+07 | 1.170E+011 |  |
| CCCC/C=C\CCC(CC/C=C\CCCC)OC(=O)CCCCCCCN(CCO)CCCCCC(=O)OCCCCCCCCCCC [Compound 61, (5Z,12Z)-heptadeca-5,12-dien-9-yl 8-((2-hydroxyethyl)(6-oxo-6-(undecyloxy)hexyl)amino)octanoate] | 82.1 |  |  |  |  | 80.0 |  |  |  |  | 6.37E+08 | 3.56E+06 | 1.61E+07 |  | 2.30E+09 |
| CCCC/C=C\CCC(CC/C=C\CCCC)OC(=O)CCCCCCCN(CCO)CCCCCCCC(=O)OCCCCCCCCC [Compound 60, (5Z,12Z)-Heptadeca-5,12-dien-9-yl 8-((2-hydroxyethyl)(8-(nonyloxy)-8-oxooctyl)amino)octanoate] | 95.1 | 88.9 |  | 95.20 |  | 93.3 | 87.4 |  |  | 9.48E+07 | 1.54E+09 | 6.25E+06 | 7.12E+06 |  |  |

The next lines start with results.

| Size [2, 5] [nm] | Size [2, 6] [nm] | EE [4, 5] [%] | EE [4, 6] [%] | Size ([2]; Table 1C, compositions for subcutaneous administration) [nm] | Size [2, 7] [nm] | Size [2, 8] [nm] | SMILES | Novel lipid/MC3 expression ratio, i.v. (luciferase (Luc) mRNA [1]) | Novel lipid/MC3 expression ratio, i.m. Luc (luciferase (Luc) mRNA [3]; luciferase) | Total flux 6 hours after intramuscular administration, 0.01 mpk Dose (luciferase (Luc) mRNA [3]) [p/s] | Total Flux, Liver (modified luciferase) | Total Flux, Lung (modified luciferase) | Total Flux, Spleen (modified luciferase) | AUC (luciferase (Luc) mRNA [1]; intravenous administration (Table 3D)) [p/s*h] | AUC (luciferase (Luc) mRNA [3]; luciferase, intramuscular administration (Table 3H)) [p/s*h] |
| --- | --- | --- | --- | --- | --- | --- | --- | --- | --- | --- | --- | --- | --- | --- | --- |
| 87.4 |  |  |  |  |  |  | CCCCCCCCCOC(=O)CCCCCCCN(CCCCCCCC(=O)OC(CCCCCCCC)CCCCCCCC)CCCNc1c(N(C)C)c(=O)c1=O [Compound 169, Heptadecan-9-yl 8-((3-((2-(dimethylamino)-3,4-dioxocyclobut-1-en-1-yl)amino)propyl)(8-(nonyloxy)-8-oxooctyl)amino)octanoate] | 0.11 | 3.3 |  |  |  |  |  |  |
| 55.8 | 71.3 | 90.42 | 82.6 |  |  |  | CCCCCCCCCOC(=O)CCCCCCCN(CCCCCCCC(=O)OC(CCCCCCCC)CCCCCCCC)CCCC(=O)NC [Compound 239, Heptadecan-9-yl 8-((4-(methylamino)-4-oxobutyl)(8-(nonyloxy)-8-oxooctyl)amino)octanoate] |  | 0.01 |  |  |  |  |  |  |
| 77.2 |  |  |  |  | 71.8 |  | CCCCCCCCCOC(=O)CCCCCCCN(CCCCCCCC(=O)OC(CCCCCCCC)CCCCCCCC)CC(O)CO (stereo not shown) [Compound 69, Heptadecan-9-yl 8-((2,3-dihydroxypropyl)(8-(nonyloxy)-8-oxooctyl)amino)octanoate] | 0.30 | 0.27 | 8.83E+06 | 2.24E+08 | 7.34E+05 | 2.54E+06 |  |  |
| 116.7 | 93.3 |  | 91.23 |  | 88.9 | 94.5 | CCCCCCCCCOC(=O)CCCCCCCN(CCCCCCCC(=O)OC(CCCCCCCC)CCCCCCCC)CCCNC(=S)N(C)C [Compound 111, Heptadecan-9-yl 8-((3-(3,3-dimethylthioureido)propyl)(8-(nonyloxy)-8-oxooctyl)amino)octanoate] |  |  | 1.58E+08 | 4.83E+09 | 2.57E+07 | 2.44E+08 |  |  |
| 66.9 | 93.7 | 97.81 | 97.6 |  |  | 87.0 | CCCCCCCCCOC(=O)CCCCCCCN(CCCCCCCC(=O)OC(CCCCCCCC)CCCCCCCC)CCCN/C(=N/S(C)(=O)=O)N(C)C [Compound 233, Heptadecan-9-yl (Z)-8-((3-(3,3-dimethyl-2-(methylsulfonyl)guanidino)propyl)(8-(nonyloxy)-8-oxooctyl)amino)octanoate] |  | 0.05 |  |  |  |  |  |  |
